Data set [1] has as its system HUVEC. As to conditions: cited from earlier work.
The subject of data set [2] is MCF7 human breast adenocarcinoma. As to conditions: cited from earlier work.
Data set [3] in a line: Bidirectional permeability in Caco-2 cell monolayer. As to conditions: human. On the technique in general: Caco-2 cells form a polarised layer with tight junctions and transporters.
For data set [4] the following is noted: cited from earlier work.
The test system of data set [5] is P. berghei ookinete development. Description: Ex vivo gametocyte-to-ookinete transition inhibition (ookinete maturation) assay. As to conditions: up to a concentration of 2 µM. It counts as cell-based, Plasmodium berghei. The procedure:
Eight days before ookinete production, 100 µL of a red blood cell (RBC) pellet containing the Plasmodium berghei circumsporozoite protein and thrombospondin-related adhesive protein (TRAP)-related protein (CTRP)-green fluorescent protein (GFP) strain (CTRP-GFP, which expresses GFP when reaching ookinete stage, kindly provided by Inga Siden-Kiamos) in cryopreservation solution (RBC pellet:RPMI:30% glycerol in water, 1:1:2) was administered intraperitoneally (i.p.) to a BALB/c mouse (Charles River Laboratories, Wilmington, MA, USA). […] The effect of drugs on gametocyte-to-ookinete conversion was assessed in three independent replicas by plating 120 µL of each culture treated with serial dilutions of the compounds in 96-well plates and incubated for 24 h at 21 °C with orbital shaking at 50 rpm (modified from). Finally, samples diluted 1:100 in PBS were analyzed in an LSRFortessa flow cytometer (BD Biosciences, Franklin Lakes, NJ, USA) set up with the 4 lasers, 20 parameters standard configuration. The GFP positive cell population was counted (λexcitation: 488 nm; λemission: 525/40 nm) using BD FACSDiva software 6.1.3 (BD Biosciences) for data collection and Flowing Software 2.5.1 (Turku Center for Biotechnology, Turku, Finland) for analysis.

For data set [6], the system named is P. falciparum asexual blood stages. As to conditions: cited from earlier work.
In data set [7] the target is T1, CYP1A2 (Homo sapiens, UniProt P05177).
T1 sequence (P05177 1-516): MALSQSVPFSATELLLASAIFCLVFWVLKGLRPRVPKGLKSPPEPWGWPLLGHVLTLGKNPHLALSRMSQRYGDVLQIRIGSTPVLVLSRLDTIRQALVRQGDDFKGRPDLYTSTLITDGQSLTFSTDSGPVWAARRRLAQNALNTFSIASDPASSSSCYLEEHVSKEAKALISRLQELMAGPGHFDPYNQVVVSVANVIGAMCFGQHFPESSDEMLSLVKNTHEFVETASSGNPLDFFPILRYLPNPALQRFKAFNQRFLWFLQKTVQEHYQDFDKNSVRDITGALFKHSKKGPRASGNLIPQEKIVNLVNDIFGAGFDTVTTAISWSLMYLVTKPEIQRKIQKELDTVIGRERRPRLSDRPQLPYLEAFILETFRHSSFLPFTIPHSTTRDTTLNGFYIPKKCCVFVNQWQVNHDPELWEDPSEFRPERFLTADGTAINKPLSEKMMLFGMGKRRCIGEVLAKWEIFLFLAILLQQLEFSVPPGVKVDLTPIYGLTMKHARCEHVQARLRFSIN
In words: in vitro.

Data set [8] is described as follows: Human plasma protein binding (Rapid Equilibrium Dialysis). Particulars: pH 7.2, RED, 4 h at 37 °C. It counts as in vitro ADME. The procedure: The assay was carried out by Rapid Equilibrium Dialysis (RED). The compounds were dissolved at 5 μM in human plasma and added to the corresponding insert of the RED device (Thermo Fisher Scientific, Inc., Waltham, MA, USA), and dialysis was performed for 4 h at 37 °C in […], 25 mM tris-HCl, pH 7.2 (Tris BupH^TM, Thermo Fisher Scientific, Inc.). Then, 50-µL aliquots from each chamber were transferred to empty vials, to which 50 µL of dialysis buffer was added. As control, 50 µL of plasma was mixed with 50 µL of buffer. Three hundred µL of acetonitrile was added to all the samples, which were analyzed by ultra-performance liquid chromatography with tandem mass spectrometry as previously described.

The conditions of data set [9]: human, hepatocytes.
The nature of data set [10]: physchem.
Data set [11] can be described thus: Solubility in PBS.
Data set [12] addresses CYP2D6 (Homo sapiens, UniProt P10635). In words: Cytochrome inhibition assay CYP2D6.
The target in data set [13] is CYP2C9 (Homo sapiens, UniProt P11712). Description: in vitro.
A short description of data set [14]: Microsomal stability.
The test system of data set [15] is P. falciparum asexual blood stages. In words: microbe, parasite or virus in culture. Particulars: Plasmodium falciparum.
Method: The asexual blood stages of P. falciparum parasites of the 3D7 strain (Malaria Research and Reference Reagent Resource Center, Manassas, VA, USA) were cultured in group B human RBCs at 3% hematocrit, which was kept throughout the experiments, and incubated in RPMIc. Parasites were maintained at 37 °C under an atmosphere of 5% O2, 5% CO2, and 90% N2. […] The parasites were then cultured under standard conditions for 48 h, allowing for a complete replication cycle. After the incubation period, 3 µL of culture from each well was mixed with 197 µL of PBS containing 0.1 µM Syto 11 (Thermo Fisher Scientific, Inc.) to obtain a final concentration of 1 × 10^6 to 10 × 10^6 cells/mL. Parasitemia levels were measured using an LSRFortessa flow cytometer equipped with a standard configuration of four lasers and 20 parameters. Single-cell populations were identified on a forward-side scatter plot. […] The inhibition data were then transformed using sigmoidal fitting to determine IC50.
For stage arrest assays, P. falciparum cultures were tightly synchronized in schizont stages by repeated treatment with 70% Percoll (GE Healthcare, Chicago, IL, USA) [26, 27]. […] Pictures were taken with a Nikon Eclipse 50i microscope equipped with a DS-Fi1 camera (Nikon Corporation, Tokyo, Japan).
The subject of data set [16] is protein aggregation in P. falciparum cultures. In words: ThT protein aggregation assay in P. falciparum cultures. As to conditions: treated for 4 h at the IC50. In kind it is cell-based, Plasmodium falciparum.
Method: After this incubation, 9 mL of culture was removed and subjected to a second Percoll treatment to pellet the parasitized red blood cells, which were resuspended in 50 μL of lysis buffer, consisting of 4.5 mg/mL NaCl in H2O supplemented with 1× cOmplete^TM protease inhibitor cocktail (Roche, Basel, Switzerland), and treated as described elsewhere [13]. […] Only those samples with parasitemias between 30 and 70% relative to the control were considered for ThT analysis.
Data set [17] concerns liver stages of P. berghei in Huh7. Particulars: read-out: IC50 against liver stages of P. berghei; cited from earlier work.
For data set [18], the system named is P. falciparum gametocytes. Particulars: cited from earlier work.
[19] abbreviates: 3D7, read-out: in vitro IC50 as determined in our experimental setting.

Values after ≈ are worked out from the molar mass of the structure shown. Where two headings read alike, the source gives them in different places.

The text below walks through data of PMC11514582, “Leveraging the Aggregated Protein Dye YAT2150 for Malaria Chemotherapy” (Pharmaceutics, 2024).

Usually Papp stands for the rate of passage across a membrane or cell layer, normalised by area and donor concentration. High values mean fast passage, low ones slow passage. One may read the Papp B→A as how fast a substance crosses the layer from the basolateral side. In general, efflux ratio refers to a quotient of directional permeabilities that is used to spot active efflux. A word on the inhibition: it is the percentage by which the read-out fell short of the control. The low end stands for a response near the control, the high end for a response far below the control. Broadly, the fraction unbound is free concentration divided by total concentration. Read a low fraction unbound as extensive binding. In general, solubility refers to the dissolved amount per volume that the medium holds. In general, half-life refers to the time needed for the level to fall by half in the phase considered. Low values mean rapid decline, high ones slow decline. A word on the microsomal CLint: it is the rate of metabolic loss divided by the concentration.

CYP2D6, sequence (P10635 whole entry): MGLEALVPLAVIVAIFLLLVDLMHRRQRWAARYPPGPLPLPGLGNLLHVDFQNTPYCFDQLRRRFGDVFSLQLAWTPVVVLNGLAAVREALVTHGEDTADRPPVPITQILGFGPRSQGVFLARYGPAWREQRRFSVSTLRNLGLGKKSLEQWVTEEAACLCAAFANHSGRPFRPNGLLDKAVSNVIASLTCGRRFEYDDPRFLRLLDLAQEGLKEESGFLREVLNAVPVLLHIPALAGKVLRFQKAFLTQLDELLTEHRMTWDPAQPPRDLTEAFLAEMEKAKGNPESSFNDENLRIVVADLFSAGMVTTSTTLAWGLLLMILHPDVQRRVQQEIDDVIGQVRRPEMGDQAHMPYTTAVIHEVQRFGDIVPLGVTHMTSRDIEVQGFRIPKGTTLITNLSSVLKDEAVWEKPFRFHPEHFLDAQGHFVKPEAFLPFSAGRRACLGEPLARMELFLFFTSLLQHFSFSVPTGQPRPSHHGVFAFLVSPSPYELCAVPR
CYP2C9, sequence (P11712 whole entry): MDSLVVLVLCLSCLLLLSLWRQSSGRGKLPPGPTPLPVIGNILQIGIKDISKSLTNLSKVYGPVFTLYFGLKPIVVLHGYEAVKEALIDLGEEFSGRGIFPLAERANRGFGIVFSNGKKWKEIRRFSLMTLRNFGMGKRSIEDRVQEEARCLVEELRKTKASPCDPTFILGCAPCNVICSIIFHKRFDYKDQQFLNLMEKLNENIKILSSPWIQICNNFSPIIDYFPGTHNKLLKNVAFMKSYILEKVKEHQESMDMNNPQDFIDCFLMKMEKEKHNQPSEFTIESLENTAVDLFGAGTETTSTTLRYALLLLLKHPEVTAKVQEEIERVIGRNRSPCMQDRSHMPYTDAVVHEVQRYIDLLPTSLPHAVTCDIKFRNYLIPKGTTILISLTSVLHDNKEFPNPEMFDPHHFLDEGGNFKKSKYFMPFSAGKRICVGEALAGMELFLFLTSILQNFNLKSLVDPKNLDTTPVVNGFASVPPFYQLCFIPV

As for `N.N.[Cl][Pt][Cl]` [Cisplatin], the CC50 in [1] is 2350 ± 40 nM; in data set [2], 16700 nM.
As to `COc1cc2c(c(OC)c1OC)-c1ccc(OC)c(=O)cc1[C@@H](NC(C)=O)CC2` [Colchicine], in [3] (Caco-2), the apparent permeability coefficient (Papp) stood at 0.26 ± 0.02 ×10⁻⁶ cm/s and the basolateral-to-apical permeability (Papp B→A) is 8.98 ± 0.47 ×10⁻⁶ cm/s. In addition, the efflux ratio in [3] (Caco-2, Transport through Caco-2 Efflux ratio, reference compounds, tested in parallel) turned out to be 35.3 ± 3. Besides, the efflux ratio in [3] (Caco-2, efflux ratios of reference compounds, as quoted in text from Supplementary Table S2) is 33. In data set [4] (ref 24 (supplement list)), the “Papp AB reported” value was 1.3 ×10⁻⁶ cm/s and the “Papp BA reported” value was 5.4 ×10⁻⁶ cm/s.
For the compound `COc1cc2c(cc1OC)C(=O)C(CC1CCN(CCCNc3c4c(nc5cc(Cl)ccc35)CCCC4)CC1)C2` (stereo not shown) [DONE3TCl], the “effect on ookinete development” value in data set [5] is “much less significant effect”. The IC50 in data set [6] (read-out: IC50 in in vitro P. falciparum asexual blood stage cultures) was about 80 nM.
Take `C[C@]12CC[C@@H]3c4ccc(OS(=O)(=O)O)cc4CC[C@H]3[C@@H]1CCC2=O` [Estrone-3-sulfate]: the “Transport through Caco-2 AB (Papp), reference compounds” value was 0.44 ± 0.03 ×10⁻⁶ cm/s and the “Transport through Caco-2 Efflux ratio, reference compounds” value turned out to be 26.5±3.5. Moreover, the “Transport through Caco-2 BA (Papp), reference compounds” value (human) came out at 11 ± 0.94 ×10⁻⁶ cm/s. Besides, in data set [4] (not told), the “Papp AB reported” value was 2.7 ×10⁻⁶ cm/s and the “Papp BA reported” value was 17.5 ×10⁻⁶ cm/s.
Take `Cc1nc2c([nH]1)c(=O)n(C)c(=O)n2Cc1ccco1` [Furafylline]: in data set [7], 2 µM produced 61% inhibition.
In turn, `O=C1NC(=O)C(c2ccccc2)(c2ccccc2)N1` [Phenytoin] showed a fraction unbound at 4 h, 5 μM in [8] of 0.167.
Regarding `COc1cc2nc(N3CCN(C(=O)c4ccco4)CC3)nc(N)c2cc1OC` [Prazosin], the “Hepatocyte stability (remaining after 2 h), reference compounds” value in data set [9] is 70.2%. In data set [10], this compound registered a solubility of 63.8 µM (≈ 24.5 µg/mL).
In turn, `CC(=O)[C@H]1CC[C@H]2[C@@H]3CCC4=CC(=O)CC[C@]4(C)[C@H]3CC[C@]12C` [Progesterone] came in with a solubility in data set [11] of 8 µM (≈ 2.52 µg/mL).
Compound `C=C[C@H]1C[N@@]2CC[C@H]1C[C@@H]2[C@@H](O)c1ccnc2ccc(OC)cc12` [Quinidine] yielded an inhibition at 0.0073 µM in data set [12] of 69%.
Compound `Nc1ccc(S(=O)(=O)Nc2ccnn2-c2ccccc2)cc1` [Sulfaphenazole] displayed an inhibition at 0.37 µM in data set [13] of 43%.
In data set [14] (human, microsomes), `C[C@]12CC[C@H]3[C@@H](CCC4=CC(=O)CC[C@@]43C)[C@@H]1CC[C@@H]2O` [Testosterone] displayed a half-life of 15.3 min and an intrinsic metabolic clearance (microsomal CLint) of 55.6 µL/min/mg. The “Microsomal stability (remaining after 1 h), reference compound” value in [14] (tested in parallel) was found to be 6.5%.
In the case of `C[C@@H]1CC[C@H]2[C@@H](C)C(=O)O[C@@H]3O[C@@]4(C)CC[C@@H]1[C@]32OO4` [artemisinin], the IC50 in data set [15] (setting [19]) was 10.8 nM. In data set [16], the “effect on protein aggregation (ThT fluorescence)” value (shortened to “effect on protein aggregation”) is “did not have an observable effect”.
For `O=C1C(O)=C([C@H]2CC[C@H](c3ccc(Cl)cc3)CC2)C(=O)c2ccccc21` [atovaquone], the IC50 in [15] (setting [19]) stood at 1 nM. Also, the “effect on protein aggregation” value in data set [16] is “did not have an observable effect”.
As for `CCN(CC)CCCC(C)Nc1ccnc2cc(Cl)ccc12` (stereo not shown) [chloroquine], the IC50 in data set [15] (read-out: in vitro IC50 as determined in our experimental setting) was 7 nM; in [6] (Table S2, ref 10 (supplement list), read-out: IC50 P. falciparum (3D7) blood stages, reference compound) it was 29.7 ± 6 nM. Moreover, the “effect on protein aggregation” value in data set [16] is listed as “reduce protein aggregation”.
Turning to `COc1cc(NC(C)CCCN)c2ncccc2c1` (stereo not shown) [primaquine], the IC50 in [17] is about 10000 nM; in [15] (setting [19]), 3000 nM; in [18] (Table S2, ref 10 (supplement list), read-out: IC50 P. falciparum early/stage V gametocytes, reference compound), 18900 ± 2000 nM; in data set [18] (stage IV-V gametocytes, read-out: IC50 for P. falciparum gametocytes (primaquine)), about 20000 nM. Besides, the “effect on protein aggregation” value in data set [16] is “reduce protein aggregation”.
